Where “and” joins values, the source holds several entries; their conditions need not be identical. Identical values can stand only once.
Test system: WM3248 melanoma cells, 486 antibodies
Assay: Reverse phase protein arrays (RPPA);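 as to Cyclin.E1.R.V RPPA level: ratio of treated to vehicle (0 µM) normalized linear protein signal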;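 as to DDB.1.R.V RPPA level: ratio of treated to vehicle (0 µM) normalized linear protein signal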
Assay type: cell-based, Human
Details: 20 uM
Source text: Pellets were snap frozen in liquid nitrogen and shipped to MD Anderson Cancer Center core RPPA facility for RPPA analysis (Table S5). Three biological replicates for each sample were generated.
Nomenclatures on the RPPA heatmaps: name_of_antibody.species_of_antibody.status_of_antibody. V - antibody validated; C - validation of antibody in progress; Q - antibody nonspecific; E – under evaluation; antibodies raised in M - mouse, G - goat, R - rabbit, or T - rat.

With CN(C)c1cccc(Nc2cc(-c3ccccc3)nc(C3CCNCC3)n2)c1 [ARN22089, N1,N1-dimethyl-N3-(6-phenyl-2-(piperidin-4-yl)pyrimidin-4-yl)benzene-1,3-diamine] the “Cyclin.D3.M.V RPPA level” value (replicates) was 0.858 and 0.793 and 0.870, the “Cyclin.E1.R.V RPPA level” value (replicates) was 1.034 and 0.978 and 0.864 and the “Cyclophilin.F.M.V RPPA level” value (replicates) was 1.052 and 0.867 and 0.858. The “D.a.Tubulin.R.V RPPA level” value (replicates) was 0.908 and 1.131 and 1.049, the “DAPK1_pS308.M.C RPPA level” value (replicates) was 1.387 and 1.152 and the “DAPK2.R.C RPPA level” value (replicates) was 0.896 and 1.008 and 1.104. The “DDB.1.R.V RPPA level” value (replicates) was 1.000 and 0.862 and 0.981, the “DDR1.R.V RPPA level” value (replicates) was 1.126 and 0.892 and 0.988 and the “DDR1_pY513.R.C RPPA level” value (replicates) was 1.221 and 1.216 and 0.940. The “DJ1.R.V RPPA level” value (replicates) was 0.994 and 0.831 and 1.019, the “DM.Histone.H3.R.V RPPA level” value (replicates) was 4.051 and 0.967 and the “DM.K9.Histone.H3.M.V RPPA level” value (replicates) was 1.226 and 2.170 and 0.946. The “DNA.Ligase.IV.R.C RPPA level” value (replicates) was 0.890 and 0.918 and 1.135, the “DNA_POLG.R.V RPPA level” value (replicates) was 1.260 and 0.956 and 0.859 and the “c.Jun_pS73.R.V RPPA level” value (replicates) was 0.959 and 1.053 and 0.897. The “c.Kit.R.V RPPA level” value (replicates) was 1.404 and 1.046 and 0.973, the “c.Met_pY1234_Y1235.R.V RPPA level” value (replicates) was 0.958 and 1.104 and 1.130 and the “c.Myc.R.C RPPA level” value (replicates) was 0.956 and 0.888 and 0.971. The “cGAS.R.V RPPA level” value (replicates) was 1.158 and 0.984, the “cdc2_pY15.R.C RPPA level” value (replicates) was 0.840 and 1.245 and 1.217 and the “cdc25C.R.V RPPA level” value (replicates) was 0.813 and 0.749 and 1.085. The “RPPA MYH11.R.C” value (single replicates) was 1.235 and 1.080 and 0.987, the “RPPA Myosin.IIa.R.C” value (single replicates) was 0.819 and 0.811 and 1.194 and the “RPPA Myosin.IIa_pS1943.R.V” value (single replicates) was 1.011 and 0.857 and 1.050. The “RPPA Myt1.R.C” value (single replicates) was 0.843 and 1.001 and 1.193, the “RPPA N.Cadherin.R.V” value (single replicates) was 1.047 and 1.081 and 0.976 and the “RPPA N.Ras.M.V” value (single replicates) was 0.921 and 0.893 and 0.971. For the same compound, the “RPPA NAPSIN.A.R.C” value (single replicates) was 0.982 and 1.016 and 1.141, the “RPPA NDRG1_pT346.R.V” value (single replicates) was 0.868 and 0.915 and 1.192 and the “RPPA NDUFB4.R.V” value (single replicates) was 1.100 and 0.998 and 0.982. The “RPPA NRF2.R.C” value (single replicates) was 0.849 and 0.982 and 0.977, the “RPPA Notch1.R.V” value (single replicates) was 1.052 and 1.121 and 0.952 and the “RPPA Notch1.cleaved.R.V” value (single replicates) was 0.740 and 0.849 and 1.080. The “RPPA Notch3.R.C” value (single replicates) was 1.026 and 1.150 and 0.931, the “RPPA Oct.4.R.C” value (single replicates) was 0.991 and 1.164 and 1.209 and the “RPPA P.Cadherin.R.C” value (single replicates) was 1.264 and 1.125. For the same compound, the “RPPA PAI.1.M.V” value (single replicates) was 1.005 and 1.281 and 0.932, the “RPPA PAICS.R.C” value (single replicates) was 0.803 and 0.811 and 1.058 and the “RPPA PAK1.R.V” value (single replicates) was 0.820 and 0.886 and 1.049. The “RPPA PAK4.R.V” value (single replicates) was 1.076 and 0.939, the “RPPA PAK_pS474_S602_S560.R.V” value (single replicates) was 1.380 and 1.298 and 0.931 and the “RPPA PAK_pT423_T402.R.C” value (single replicates) was 1.015 and 1.053 and 0.971. For the same compound, the “RPPA PAR.R.C” value (single replicates) was 0.974 and 1.464 and 0.714, the “RPPA PARG.R.C” value (single replicates) was 1.599 and 1.316 and 1.014 and the “RPPA PARP.R.V” value (single replicates) was 0.538 and 1.057 and 1.348. The “RPPA PAX6.R.V” value (single replicates) was 1.001 and 1.058 and 0.982, the “RPPA PAX8.R.C” value (single replicates) was 1.024 and 0.925 and 0.962 and the “RPPA PCNA.M.C” value (single replicates) was 0.783 and 0.854 and 0.955. The “RPPA PD.1.R.V” value (single replicates) was 1.098 and 1.052 and 0.984, the “RPPA PD.L1.R.C” value (single replicates) was 0.895 and 1.054 and 1.001 and the “RPPA PDH.M.V” value (single replicates) was 0.970 and 1.058 and 0.953. For the same compound, the “RPPA PDHA1.R.V” value (single replicates) was 0.972 and 1.004 and 1.113, the “RPPA PDHK1.R.C” value (single replicates) was 0.803 and 0.959 and 1.129 and the “RPPA PDK1.R.V” value (single replicates) was 1.000 and 1.250. The “RPPA PDK1_pS241.R.V” value (single replicates) was 0.916 and 0.898 and 1.103, the “RPPA PEA.15.R.V” value (single replicates) was 0.986 and 0.870 and 0.999 and the “RPPA PEA.15_pS116.R.V” value (single replicates) was 1.029 and 0.986. For the same compound, the “RPPA PERK.R.V” value (single replicates) was 1.320 and 0.802 and 0.841, the “RPPA PGM1.R.V” value (single replicates) was 0.846 and 0.933 and the “RPPA PHGDH.R.C” value (single replicates) was 0.989 and 0.962. The “RPPA PHLPP.R.V” value (single replicates) was 1.674 and 0.930 and 0.767, the “RPPA PI3K.p85.R.C” value (single replicates) was 1.023 and 0.792 and 0.886 and the “RPPA PI3K.p110.a.R.C” value (single replicates) was 0.804 and 0.921. For the same compound, the “RPPA PI3K.p110.b.M.C” value (single replicates) was 0.988 and 0.918 and 0.941, the “RPPA PKA.a.R.V” value (single replicates) was 0.974 and 0.780 and 1.028 and the “RPPA PKC.a.b.II_pT638_T641.R.V” value (single replicates) was 0.684 and 0.941 and 1.154. The “RPPA PKC.b.II_pS660.R.V” value (single replicates) was 0.997 and 1.114 and 1.126, the “RPPA PKCa.R.V” value (single replicates) was 0.630 and 2.106 and 1.942 and the “RPPA PKM2.R.C” value (single replicates) was 0.846 and 0.763. The “RPPA PLC.gamma1.R.V” value (single replicates) was 1.296 and 0.944 and 0.963, the “RPPA PLC.gamma1_pS1248.R.V” value (single replicates) was 0.837 and 0.893 and 0.954 and the “RPPA PLC.gamma2_pY759.R.V” value (single replicates) was 1.000 and 1.004 and 0.945. For the same compound, the “RPPA PLK1.R.C” value (single replicates) was 1.107 and 0.592 and 1.060, the “RPPA PMS2.R.V” value (single replicates) was 1.016 and 0.991 and 0.952 and the “RPPA PR.R.V” value (single replicates) was 0.957 and 0.966 and 0.945. For the same compound, the “RPPA PRAS40.M.C” value (single replicates) was 1.496 and 1.229 and 0.955, the “RPPA PRAS40_pT246.R.V” value (single replicates) was 1.099 and 1.166 and the “RPPA PRC1_pT481.R.C” value (single replicates) was 1.163 and 1.114 and 0.975. For the same compound, the “RPPA PREX1.R.V” value (single replicates) was 0.874 and 0.851 and 1.124, the “RPPA PTEN.R.V” value (single replicates) was 1.018 and 1.109 and 1.120 and the “RPPA PTPN12.R.V” value (single replicates) was 1.234 and 1.447.

Reference: article PMC9127750, “Structure-based design of CDC42 effector interaction inhibitors for the treatment of cancer” (Cell reports, 2022)
